Where two headings read alike, the source gives them in different places.
Columns and labels:
human PHD1 = human PHD1 (Homo sapiens, UniProt Q96KS0); assay: PHD inhibitory action, PHD1; format: biochemical; settings: in vitro
human PHD3 = human PHD3 (Homo sapiens, UniProt Q9H6Z9); assay: PHD inhibitory action, PHD3; format: biochemical; settings: in vitro
[1] = tested on: hemoglobin concentration and red blood cell count; assay: Hemoglobin concentration and red blood cell count after repeated dosing; format: in vivo, rat; settings: normal rats, repeated oral administration for 14 days
[2] = Influence of meal on pharmacokinetics, single 450 mg dose; settings: male, human, in vivo, oral
Description: The median tmax of this drug was prolonged by postprandial administration for about 1.5 hours as compared with fasting.

CYP2C8 = biological target: T1, CYP2C8 (Homo sapiens, UniProt P10632); assay: CYP2C8 inhibition in vitro; format: in vitro ADME
T1 sequence (P10632 1-490): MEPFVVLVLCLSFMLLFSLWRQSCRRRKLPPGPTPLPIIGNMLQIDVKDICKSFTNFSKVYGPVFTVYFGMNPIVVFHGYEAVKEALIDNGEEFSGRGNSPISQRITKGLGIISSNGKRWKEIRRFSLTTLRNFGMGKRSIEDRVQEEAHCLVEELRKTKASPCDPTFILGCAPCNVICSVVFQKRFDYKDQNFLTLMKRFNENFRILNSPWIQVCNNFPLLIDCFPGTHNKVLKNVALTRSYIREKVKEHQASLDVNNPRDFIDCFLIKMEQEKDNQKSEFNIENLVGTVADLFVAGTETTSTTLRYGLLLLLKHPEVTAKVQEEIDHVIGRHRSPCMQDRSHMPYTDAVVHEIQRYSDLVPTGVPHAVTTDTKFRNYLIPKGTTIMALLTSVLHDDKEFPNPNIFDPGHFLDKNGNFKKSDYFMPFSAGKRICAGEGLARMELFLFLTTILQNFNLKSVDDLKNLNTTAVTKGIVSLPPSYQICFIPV

[3] = Phase I furosemide interaction study; format: in vivo, human; settings: furosemide 40 mg and vadadustat 600 mg once daily
Description: The study included 3 periods as follow: a 28-day screening period, 7-21 day in clinic period, and a 30-day follow up period post last dose.
On Days 3 to 6, subjects received vadadustat 600 mg (once daily).

[4] = Phase I ferrous sulfate tablet interaction study;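 further: crossover in fasted human subjects with four-day washout between periods, plasma glucuronide metabolite pharmacokinetics, ratios computed as metabolite over parent for AUC and Cmax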
Description: Pharmacokinetics. […] The ratio of metabolite to parent was calculated for each glucuronide metabolite for AUC(0-t); and AUC(0-inf) and Cmax.
Comparative Bioavailability. […] Factors incorporated in the model included: Sequence, Subject (Sequence), Period, and Treatment.
Treatment of Subjects. […] All subjects are dosed on the same day for Day 1 of Confinement Period 1, and are crossed over to the alternate treatment and are dosed on the same day for Day 1 of Confinement Period 2. Both treatments are administered in a fasted state, and a four-day Washout Period separates each Confinement Period.

[5] = After Meal, healthy adult males
[6] = Compound 1+Iron compared to Compound 1 alone

Chain of human PHD3 (Q9H6Z9 whole entry): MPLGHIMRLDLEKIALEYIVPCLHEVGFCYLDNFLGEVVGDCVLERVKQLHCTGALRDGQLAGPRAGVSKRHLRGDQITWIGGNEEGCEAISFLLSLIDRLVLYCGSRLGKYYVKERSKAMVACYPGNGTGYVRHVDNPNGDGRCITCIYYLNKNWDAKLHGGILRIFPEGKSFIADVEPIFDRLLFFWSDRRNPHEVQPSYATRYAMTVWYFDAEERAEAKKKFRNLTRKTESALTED
Chain of human PHD1 (Q96KS0 whole entry): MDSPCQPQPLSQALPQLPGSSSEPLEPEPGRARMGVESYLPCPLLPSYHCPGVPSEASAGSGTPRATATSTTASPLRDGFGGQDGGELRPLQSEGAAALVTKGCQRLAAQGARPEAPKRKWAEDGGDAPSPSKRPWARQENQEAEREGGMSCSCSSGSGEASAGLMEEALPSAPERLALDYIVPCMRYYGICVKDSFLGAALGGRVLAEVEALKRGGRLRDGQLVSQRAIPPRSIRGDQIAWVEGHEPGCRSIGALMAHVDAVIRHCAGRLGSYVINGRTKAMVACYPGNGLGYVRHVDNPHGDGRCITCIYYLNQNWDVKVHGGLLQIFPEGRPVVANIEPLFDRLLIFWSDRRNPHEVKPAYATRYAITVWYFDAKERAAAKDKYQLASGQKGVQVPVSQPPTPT

## O=C(O)CNC(=O)c1ncc(-c2cccc(Cl)c2)cc1O [Compound 1, {[5-(3-chlorophenyl)-3-hydroxypyridine-2-carbonyl]amino}acetic acid]
Human PHD1
  IC50: 15.4 nM
Human PHD3
  IC50: 7.63 nM
[1]
  hemoglobin concentration: increasing
  red blood cell count: increasing
[2]; [5]
  AUC(0-inf): 351 ± 101 µg·h/mL
  Cmax: 46.3 ± 12.2 µg/mL
[2]; After Meal, healthy adult males, read-out: tmax
  Tmax: 3.52 h
[2]; Fasting, healthy adult males
  AUC(0-inf): 371 ± 100 µg·h/mL
  Cmax: 63.1 ± 14.6 µg/mL
[2]; Fasting, healthy adult males, read-out: tmax
  Tmax: 2 h
[2]; compared with fasting, read-out: prolongation of median tmax by postprandial administration
  Tmax: ~1.5 h
CYP2C8
  inhibitory effect on CYP2C8: inhibitory effect
[3]
  serious TEAEs: No serious TEAEs
[4]; [6]
  lowering of Cmax: approximately 51%
  lowering of mean plasma AUC (AUC0-t and AUC0-inf): approximately 54%
[4]; single 450 mg dose with or without ferrous sulfate
  AEs, SAEs, deaths: no AEs, SAEs, or deaths
